From ChEMBL document CHEMBL3758164, “Identification of new SUMO activating enzyme 1 inhibitors using virtual screening and scaffold hopping” (Bioorg Med Chem Lett, 2016)
pIC50: −log10 of the molar value.

Experiments:
[1] = target: T1, SUMO-activating enzyme subunit 1 (Homo sapiens) (UniProt Q9UBE0); experiment: Inhibition of recombinant GST-fused SUMO E1 (unknown origin) using RanGAP1 as substrate at 20 uM after 2 hrs by immunoblot analysis; details: values are per cent of control
T1 sequence (whole entry): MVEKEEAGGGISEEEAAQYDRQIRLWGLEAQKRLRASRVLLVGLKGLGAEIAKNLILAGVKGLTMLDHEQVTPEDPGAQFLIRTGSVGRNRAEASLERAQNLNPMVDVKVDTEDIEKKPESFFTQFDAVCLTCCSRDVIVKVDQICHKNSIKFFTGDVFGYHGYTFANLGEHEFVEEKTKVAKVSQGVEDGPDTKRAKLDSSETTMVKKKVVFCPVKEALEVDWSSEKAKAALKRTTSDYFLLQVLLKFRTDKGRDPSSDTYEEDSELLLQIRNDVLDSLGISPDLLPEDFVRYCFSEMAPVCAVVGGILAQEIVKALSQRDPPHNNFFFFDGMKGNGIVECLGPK

[2] = target: T1, SUMO-activating enzyme subunit 1 (Homo sapiens); experiment: Inhibition of recombinant GST-fused SUMO E1 (unknown origin) using RanGAP1 as substrate at 100 uM after 2 hrs by immunoblot analysis; details: values are per cent of control
[3] = target: T2, SUMO-activating enzyme subunit 1 (Homo sapiens, UniProt Q9UBE0); experiment: (§1) Inhibition of recombinant GST-fused SUMO E1 (unknown origin) using RanGAP1 as substrate after 2 hrs by immunoblot analysis
T2 sequence (Q9UBE0 whole entry): T1 sequence (whole entry)

[4] = target: T1, SUMO-activating enzyme subunit 1 (Homo sapiens); experiment: as §1

Row | Compound | residual activity [1] | residual activity [2] | pIC50 [3] | inhibition [4]
1 | COc1ccc(NC(=O)Nc2nc(-c3ccccc3)c(C(C)=O)s2)cc1OC | 86% | 13.7% |  | 
2 | COc1cc(NC(=O)Nc2nc(-c3ccc(Cl)s3)cs2)cc(OC)c1OC | 60.8% | 0.01% |  | 
3 | Cc1ccc(-c2nc(NC(=O)Nc3ccc(F)cc3)sc2C)cc1Cl | 93.9% | 94.8% |  | 
4 | Cc1sc(NC(=O)Nc2ccc(Cl)cc2)nc1-c1ccccc1 | 91.5% | 95.8% |  | 
5 | COc1cc(C)ccc1NC(=O)Nc1cn(-c2ccccc2)nc1-c1ccc(OC)c(OC)c1 | 88.9% | 57.5% |  | 
6 | CCc1cc(=O)[nH]c(-n2nc(-c3ccccc3)cc2NC(=O)Nc2ccc(OC)cc2)n1 | 65.6% | 11.8% |  | 
7 | CCOc1ccc(NC(=O)Nc2nc(-c3ccccc3)c(C)s2)cc1 | 76.7% | 43.9% |  | 
8 | CCc1c(C)nc(-n2nc(C)cc2NC(=O)Nc2cccc(OC)c2)[nH]c1=O | 98.1% | 103% |  | 
9 | COc1ccccc1NC(=O)Nc1nc(-c2ccc(OC)c(OC)c2)cs1 | 88.1% | 80% |  | 
10 | Cn1nc(-c2ccc(Cl)cc2)cc1NC(=O)Nc1ccc(OCc2ccccc2)cc1 | 73.4% | 1.99% |  | 
11 | COc1cccc(NC(=O)Nc2cc(C)nn2-c2ccc(F)cc2)c1 | 96% | 96.4% |  | 
12 | Cc1ccc(S(=O)(=O)NC(=O)Nc2nc(-c3ccc(C)c(Cl)c3)c(C)s2)cc1 | 79.3% | 0.68% |  | 
13 | Cn1nc(-c2ccccc2)cc1NC(=O)Nc1ccc(OCc2ccccc2)cc1 | 72% | 3% |  | 
14 | COc1ccc(NC(=O)Nc2nc(-c3ccc(OC)c(OC)c3)cs2)cc1 | 92% | 68.7% |  | 
15 | Cn1nc(C(C)(C)C)cc1NC(=O)Nc1ccc(OCc2ccccc2)cc1 | 92.9% | 97.3% |  | 
16 | COc1ccc(NC(=O)Nc2ccc(Oc3ncnc4cc(Cl)ccc34)nc2)cc1OC1CCCC1 |  |  | 4.87 | 
17 | Cc1ccc(-c2nc(NC(=O)Nc3cccc(Cl)c3)sc2C)cc1 | 88.5% | 45.6% |  | 
18 | COc1cccc(NC(=O)Nc2nc(C)c(C(C)=O)s2)c1 | 96.6% | 91.9% |  | 
19 | CCc1cc(=O)[nH]c(-n2nc(-c3ccccc3)cc2NC(=O)Nc2ccc3c(c2)OCO3)n1 | 36.7% | 5.69% | < 4.00 | 
20 | CCOC(=O)c1sc(NC(=O)Nc2ccc(Cl)c(Cl)c2)nc1C | 53.8% | 0.7% |  | 
21 | O=C(Nc1cccc(Cl)c1)Nc1nc2c(ccc3ccccc32)s1 | 69.3% | 0.02% |  | 

Row | Compound | residual activity [1] | residual activity [2] | pIC50 [3] | inhibition [4]
22 | COc1cc(NC(=O)Nc2cc(-c3ccccc3)nn2-c2nc(C)cc(=O)[nH]2)cc(OC)c1 | 57.5% | 16% | 4.14 | 
23 | COc1ccc(NC(=O)Nc2cc(C)nn2-c2ccc(F)cc2)cc1 | 97.7% | 95.4% |  | 
24 | Cc1ccc(-c2nc(NC(=O)Nc3ccc(OCc4ccccc4)cc3)sc2C)cc1Cl | 64.8% | 31.6% |  | 
25 | COc1ccc(NC(=O)Nc2nc3cc(C)c(C)cc3s2)cc1OC | 94.6% | 76.6% |  | 
26 | CCc1cc(=O)[nH]c(-n2nc(-c3ccccc3)cc2NC(=O)Nc2ccc(C(C)(C)C)cc2)n1 | 55.2% | 1.88% | 4.86 | 
27 | COc1ccccc1NC(=O)Nc1cc(C(C)(C)C)nn1C | 102% | 95.2% |  | 
28 | COc1cc(NC(=O)Nc2nc(-c3cc4ccccc4o3)cs2)cc(OC)c1OC | 76.8% | 45.3% |  | 
29 | COc1cc(NC(=O)Nc2nc(-c3nc4ccccc4s3)cs2)cc(OC)c1OC | 37.6% | 3.96% | 4.48 | Dose-dependent effect
30 | COc1ccc(NC(=O)Nc2nc3c(ccc4ccccc43)s2)cc1 | 84.7% | 10.3% |  | 
31 | COc1cc(NC(=O)Nc2nc3cc(C)c(C)cc3s2)cc(OC)c1OC | 94.8% | 96% |  | 
32 | COc1ccc(NC(=O)Nc2nc(-c3ccc(C)c(Cl)c3)c(C)s2)cc1OC1CCCC1 | 39.8% | 13% | 4.03 | Dose-dependent effect
33 | COc1ccc(NC(=O)Nc2nc(C)c(C(C)=O)s2)cc1 | 105% | 93.3% |  | 
34 | Cc1ccc(-c2nc(NC(=O)Nc3ccccc3)sc2C)cc1Cl | 65.6% | 41.4% |  | 
35 | COc1ccccc1NC(=O)Nc1cc(C(C)(C)C)nn1-c1ccccc1 | 99.6% | 53.2% |  | 
36 | COc1ccc(NC(=O)Nc2cc(C)nn2C2CCCC2)cc1 | 93.7% | 103% |  | 
37 | COc1cc(NC(=O)Nc2nc3c(OC)ccc(C)c3s2)cc(OC)c1OC | 99.3% | 83.5% |  | 
38 | O=C(Nc1ccc(OCc2ccccc2)cc1)Nc1cc(-c2ccccc2)nn1-c1ccccc1 | 86.3% | 13.3% |  | 
39 | CCc1cc(=O)[nH]c(-n2nc(-c3ccccc3)cc2NC(=O)Nc2cc(OC)cc(OC)c2)n1 | 82.3% | 26.8% |  | 
40 | Cc1cc(=O)[nH]c(-n2nc(-c3ccccc3)cc2NC(=O)Nc2ccc3c(c2)OCO3)n1 | 57.7% | 3.99% | 4.52 | 
41 | COc1cccc(NC(=O)Nc2cc(C)nn2C2CCCC2)c1 | 100% | 101% |  | 
42 | Cc1ccc(-c2nc(NC(=O)Nc3ccc(Cl)cc3)sc2C)cc1 | 91.8% | 20.6% |  | 
